Source: PubChem BioAssay (NCI)
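In this assay, cells in 96-well plates receive the compound at five concentrations for 48 hours. Endpoints are linearly interpolated between the surrounding concentrations. GI50 = concentration required for 50% inhibition of growth. The concentration for full growth arrest is given as TGI.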

Legend:
Test in all cases: NCI-60 cell line screen, 48 h
HOP-62 NSCLC = system: HOP-62 NSCLC
SK-MEL-5 melanoma = system: SK-MEL-5 melanoma
OVCAR-4 ovarian = system: OVCAR-4 ovarian
MOLT-4 leukemia = system: MOLT-4 leukemia
COLO 205 colon = system: COLO 205 colon
NCI-H23 lung = system: NCI-H23 lung
TK-10 renal = system: TK-10 renal
SF-539 CNS = system: SF-539 CNS
SK-OV-3 ovarian = system: SK-OV-3 ovarian
KM12 colon = system: KM12 colon

| Structure (SMILES) | TGI (HOP-62 NSCLC) | TGI (SK-MEL-5 melanoma) | TGI (OVCAR-4 ovarian) | TGI (MOLT-4 leukemia) | TGI (COLO 205 colon) | TGI (NCI-H23 lung) | TGI (TK-10 renal) | TGI (SF-539 CNS) | TGI (SK-OV-3 ovarian) | TGI (KM12 colon) | GI50 (HOP-62 NSCLC) | GI50 (SK-MEL-5 melanoma) | GI50 (OVCAR-4 ovarian) | GI50 (MOLT-4 leukemia) | GI50 (COLO 205 colon) | GI50 (NCI-H23 lung) | GI50 (TK-10 renal) | GI50 (SF-539 CNS) | GI50 (SK-OV-3 ovarian) | GI50 (KM12 colon) |
| --- | --- | --- | --- | --- | --- | --- | --- | --- | --- | --- | --- | --- | --- | --- | --- | --- | --- | --- | --- | --- |
| C=C1C(=O)OC2C1C(OC(=O)/C(C)=C/C)CC(O)(CCl)C1C(O)C=C(C)C21O (centres undefined) | > 67.2 µM | 27.7 µM | 30 µM | 20.6 µM | 18.5 µM | 28.3 µM | 27.6 µM | 65.5 µM | > 100 µM | 49.8 µM | – | – | – | – | – | – | – | – | – | – |
| Cc1ccc(C(=O)NCCCOc2ccc(N3C(N)=NC(N)=NC3(C)C)cc2Cl)cc1S(=O)(=O)F | > 100 µM | > 100 µM | > 100 µM | > 100 µM | > 100 µM | > 100 µM | > 100 µM | > 100 µM | > 100 µM | > 100 µM | > 100 µM | 4.78 µM | 81.2 µM | > 100 µM | 38.1 µM | 12.8 µM | > 100 µM | 8.1 µM | > 100 µM | 39 µM |
| N#Cc1ccc(-c2c(-c3ncn[nH]3)sc(N3CCOCC3)c2C#N)c(F)c1 | 21.9 µM | 13.7 µM | 36.6 µM | 27.6 µM | 15.6 µM | > 100 µM | 7.11 µM | 4.53 µM | 5.69 µM | 15.6 µM | 1.05 µM | 2.29 µM | 2.82 µM | 0.484 µM | 0.687 µM | 3.32 µM | 0.316 µM | 0.571 µM | 0.197 µM | 2.25 µM |
| C[P+](C)(C)C | > 100 µM | > 100 µM | > 100 µM | > 100 µM | > 100 µM | > 100 µM | > 100 µM | > 100 µM | > 100 µM | > 100 µM | – | – | – | – | – | – | – | – | – | – |
| CC1(C)CCCC2(C)C3C(O)CC2(C)C(O)C31 (centres undefined) | > 100 µM | > 100 µM | > 100 µM | > 100 µM | > 100 µM | > 100 µM | > 100 µM | > 100 µM | > 100 µM | > 100 µM | – | – | – | – | – | – | – | – | – | – |
| CNCC/C=C1\c2cc3c(cc2-c2c1c1cc(OC)c(OC)cc1c(=O)n2C)OCO3 | 21.9 µM | 2.89 µM | 44.8 µM | – | 41.2 µM | 7.75 µM | 8.56 µM | 5.85 µM | 23.6 µM | 0.504 µM | 0.596 µM | 0.548 µM | 6.72 µM | < 0.01 µM | 1.73 µM | 1.33 µM | 0.941 µM | 0.4 µM | 3.28 µM | < 0.0507 µM |
| NCCCCCNc1noc(Cc2c[nH]c3cc(Br)ccc23)n1 | 29.3 µM | 16.2 µM | 52.4 µM | 18.6 µM | 3.22 µM | 8.75 µM | 22.3 µM | 5.84 µM | 12.5 µM | 14.7 µM | 3.79 µM | 2.08 µM | 6.7 µM | 2.44 µM | 1.52 µM | 1.76 µM | 7.66 µM | 2.15 µM | 2.46 µM | 1.24 µM |
| Cn1c(=O)nc2n(-c3ccc(Cl)cc3)c(-c3ccccc3)c(-c3ccccc3)nc-2c1=O | 66.7 µM | 53.5 µM | > 100 µM | 53.4 µM | > 100 µM | > 100 µM | > 100 µM | 71.5 µM | > 100 µM | > 100 µM | – | – | – | – | – | – | – | – | – | – |
| CC(C)(C)c1cc(C(=O)Nc2ccc(C(=O)NCCN)cc2)cc(C(C)(C)C)c1 | 21.8 µM | 3.15 µM | 11 µM | 7.3 µM | 3.77 µM | 14.4 µM | 9.64 µM | 3.41 µM | 20.7 µM | 5.14 µM | 4.5 µM | 1.74 µM | 2.71 µM | 2.63 µM | 1.85 µM | 3.19 µM | 2.99 µM | 1.68 µM | 5.31 µM | 2.22 µM |
| CCCCCCCCOCC(O)CO (centres undefined) | > 100 µM | > 100 µM | > 100 µM | > 100 µM | > 100 µM | > 100 µM | > 100 µM | > 100 µM | > 100 µM | > 100 µM | – | – | – | – | – | – | – | – | – | – |
| Cc1c(Cl)c(=O)oc2cc(OC/C=C3\CCC(=O)O3)ccc12 | 66.1 µM | 52.2 µM | 36.1 µM | > 100 µM | 30.1 µM | 32.7 µM | 32.6 µM | 56.5 µM | > 100 µM | 75.3 µM | 23.6 µM | 21 µM | 15.2 µM | 16.5 µM | 12.9 µM | 17.4 µM | 13.8 µM | 17.4 µM | 58 µM | 26.1 µM |
| C1OC1CN1CCN(CC2CO2)CC1 (centres undefined) | 69.7 µM | > 100 µM | > 100 µM | > 62.4 µM | > 100 µM | > 81.2 µM | > 100 µM | > 100 µM | > 100 µM | > 100 µM | – | – | – | – | – | – | – | – | – | – |
| CC[C@@]1(OC(=O)C(N)CCCCN)C(=O)OCc2c1cc1n(c2=O)Cc2cc3ccccc3nc2-1 (some centres undefined) | 0.0667 µM | 0.184 µM | 2.84 µM | 0.13 µM | 3.39 µM | 0.282 µM | 65.9 µM | 0.149 µM | 12 µM | 5.26 µM | – | – | – | – | – | – | – | – | – | – |
| CCN(CC)c1c(-c2ccccc2)n[nH]c1C(=O)OC | > 100 µM | 27.6 µM | > 100 µM | 58.2 µM | 64 µM | > 100 µM | 59.2 µM | 36.5 µM | 50.5 µM | 47 µM | 44.6 µM | 14.5 µM | 54.1 µM | 18.6 µM | 17.7 µM | 42.4 µM | 22.5 µM | 20.1 µM | 17.4 µM | 17.8 µM |
| Cc1cc(C(=O)/C=C/c2ccc[nH]2)ccc1-n1ccc(C(F)(F)F)n1 | > 100 µM | 25.3 µM | > 100 µM | > 100 µM | > 100 µM | > 100 µM | > 100 µM | 9.13 µM | > 100 µM | > 100 µM | 34.8 µM | 12.1 µM | 3.18 µM | 3.66 µM | 21.8 µM | 14.9 µM | 27.5 µM | 2.69 µM | 46.8 µM | 1.01 µM |
